According to ChEMBL document CHEMBL1137802, “Specific antioxidant activity of caffeoyl derivatives and other natural phenolic compounds: LDL protection against oxidation and decrease in the proinflammatory lysophosphatidylcholine production” (J Nat Prod, 2001):

How the values were obtained:
Format in all cases: functional, cell-free
[1] = Antioxidant activity against Cu2+-induced lipid peroxidation in human plasma LDL assessed as lysophosphatidylcholine formation at 5 umol/L preincubated for 1 hr before Cu2+ challenge measured after 150 mins
[2] = Antioxidant activity against Cu2+-induced lipid peroxidation in human plasma LDL assessed as vitamin E consumption at 20 umol/L preincubated for 1 hr before Cu2+ challenge measured after 90 mins
[3] = Antioxidant activity against Cu2+-induced lipid peroxidation in human plasma LDL assessed as maximal compound concentration at 10 umol/L preincubated for 1 hr before Cu2+ challenge measured after 15 mins relative to compound present at 0 min
[4] = Antioxidant activity against Cu2+-induced lipid peroxidation in human plasma LDL assessed as vitamin E consumption at 5 umol/L preincubated for 1 hr before Cu2+ challenge measured after 90 mins
[5] = Antioxidant activity against Cu2+-induced lipid peroxidation in human plasma LDL assessed as conjugated diene formation at 10 umol/L preincubated for 1 hr before Cu2+ challenge measured after 210 mins
[6] = Antioxidant activity against Cu2+-induced lipid peroxidation in human plasma LDL assessed as maximal compound concentration at 5 umol/L preincubated for 1 hr before Cu2+ challenge measured after 120 mins relative to compound present at 0 min
[7] = Antioxidant activity against Cu2+-induced lipid peroxidation in human plasma LDL assessed as vitamin E consumption at 10 umol/L preincubated for 1 hr before Cu2+ challenge measured after 45 mins
[8] = Antioxidant activity against Cu2+-induced lipid peroxidation in human plasma LDL assessed as vitamin E consumption at 20 umol/L preincubated for 1 hr before Cu2+ challenge measured after 150 mins
[9] = Antioxidant activity against Cu2+-induced lipid peroxidation in human plasma LDL assessed as conjugated diene formation at 5 umol/L preincubated for 1 hr before Cu2+ challenge measured after 180 mins
[10] = Antioxidant activity against Cu2+-induced lipid peroxidation in human plasma LDL assessed as conjugated diene formation at 20 umol/L preincubated for 1 hr before Cu2+ challenge measured after 60 mins
[11] = Antioxidant activity against Cu2+-induced lipid peroxidation in human plasma LDL assessed as vitamin E consumption at 5 umol/L preincubated for 1 hr before Cu2+ challenge measured after 60 mins
[12] = Antioxidant activity against Cu2+-induced lipid peroxidation in human plasma LDL assessed as vitamin E consumption at 20 umol/L preincubated for 1 hr before Cu2+ challenge measured after 15 mins
[13] = Antioxidant activity against Cu2+-induced lipid peroxidation in human plasma LDL assessed as lysophosphatidylcholine formation at 20 umol/L preincubated for 1 hr before Cu2+ challenge measured after 150 mins
[14] = Antioxidant activity against Cu2+-induced lipid peroxidation in human plasma LDL assessed as lysophosphatidylcholine formation at 10 umol/L preincubated for 1 hr before Cu2+ challenge measured after 210 mins
[15] = Antioxidant activity against Cu2+-induced lipid peroxidation in human plasma LDL assessed as maximal compound concentration at 10 umol/L preincubated for 1 hr before Cu2+ challenge measured after 60 mins relative to compound present at 0 min
[16] = Antioxidant activity against Cu2+-induced lipid peroxidation in human plasma LDL assessed as lysophosphatidylcholine formation at 5 umol/L preincubated for 1 hr before Cu2+ challenge measured after 210 mins
[17] = Antioxidant activity against Cu2+-induced lipid peroxidation in human plasma LDL assessed as maximal compound concentration at 5 umol/L preincubated for 1 hr before Cu2+ challenge measured after 150 mins relative to compound present at 0 min
[18] = Antioxidant activity against Cu2+-induced lipid peroxidation in human plasma LDL assessed as maximal compound concentration at 10 umol/L preincubated for 1 hr before Cu2+ challenge measured after 30 mins relative to compound present at 0 min
[19] = Antioxidant activity against Cu2+-induced lipid peroxidation in human plasma LDL assessed as maximal compound concentration at 5 umol/L preincubated for 1 hr before Cu2+ challenge measured after 30 mins relative to compound present at 0 min
[20] = Antioxidant activity against Cu2+-induced lipid peroxidation in human plasma LDL assessed as conjugated diene formation at 5 umol/L preincubated for 1 hr before Cu2+ challenge measured after 60 mins
[21] = Antioxidant activity against Cu2+-induced lipid peroxidation in human plasma LDL assessed as lysophosphatidylcholine formation at 10 umol/L preincubated for 1 hr before Cu2+ challenge measured after 180 mins
[22] = Antioxidant activity against Cu2+-induced lipid peroxidation in human plasma LDL assessed as conjugated diene formation at 10 umol/L preincubated for 1 hr before Cu2+ challenge measured after 150 mins
[23] = Antioxidant activity against Cu2+-induced lipid peroxidation in human plasma LDL assessed as vitamin E consumption at 20 umol/L preincubated for 1 hr before Cu2+ challenge measured after 210 mins
[24] = Antioxidant activity against Cu2+-induced lipid peroxidation in human plasma LDL assessed as maximal compound concentration at 20 umol/L preincubated for 1 hr before Cu2+ challenge measured after 90 mins relative to compound present at 0 min
[25] = Antioxidant activity against Cu2+-induced lipid peroxidation in human plasma LDL assessed as maximal compound concentration at 20 umol/L preincubated for 1 hr before Cu2+ challenge measured after 210 mins relative to compound present at 0 min
[26] = Antioxidant activity against Cu2+-induced lipid peroxidation in human plasma LDL assessed as maximal compound concentration at 10 umol/L preincubated for 1 hr before Cu2+ challenge measured after 270 mins relative to compound present at 0 min
[27] = Antioxidant activity against Cu2+-induced lipid peroxidation in human plasma LDL assessed as conjugated diene formation at 5 umol/L preincubated for 1 hr before Cu2+ challenge measured after 150 mins
[28] = Antioxidant activity against Cu2+-induced lipid peroxidation in human plasma LDL assessed as vitamin E consumption at 5 umol/L preincubated for 1 hr before Cu2+ challenge measured after 270 mins
[29] = Antioxidant activity against Cu2+-induced lipid peroxidation in human plasma LDL assessed as vitamin E consumption at 5 umol/L preincubated for 1 hr before Cu2+ challenge measured after 150 mins
[30] = Antioxidant activity against Cu2+-induced lipid peroxidation in human plasma LDL assessed as conjugated diene formation at 20 umol/L preincubated for 1 hr before Cu2+ challenge measured after 360 mins
[31] = Antioxidant activity against Cu2+-induced lipid peroxidation in human plasma LDL assessed as conjugated diene formation at 5 umol/L preincubated for 1 hr before Cu2+ challenge measured after 120 mins
[32] = Antioxidant activity against Cu2+-induced lipid peroxidation in human plasma LDL assessed as lysophosphatidylcholine formation at 20 umol/L preincubated for 1 hr before Cu2+ challenge measured after 360 mins
[33] = Antioxidant activity against Cu2+-induced lipid peroxidation in human plasma LDL assessed as lysophosphatidylcholine formation at 20 umol/L preincubated for 1 hr before Cu2+ challenge measured after 210 mins
[34] = Antioxidant activity against Cu2+-induced lipid peroxidation in human plasma LDL assessed as vitamin E consumption at 20 umol/L preincubated for 1 hr before Cu2+ challenge measured after 180 mins

CC(C)(Sc1cc(C(C)(C)C)c(O)c(C(C)(C)C)c1)Sc1cc(C(C)(C)C)c(O)c(C(C)(C)C)c1
Activity [1]: 17.5% | Activity [2]: 0% | Activity [3]: 86.6% | Activity [4]: 0% | Activity [5]: 76.3% | Activity [6]: 56.5% | Activity [7]: 11% | Activity [8]: 0% | Activity [9]: 79.5% | Activity [10]: 1.3% | Activity [11]: 0% | Activity [12]: 38.2% | Activity [13]: 1.3% | Activity [14]: 9.1% | Activity [15]: 34.1% | Activity [16]: 23.1% | Activity [17]: 28.6% | Activity [18]: 82% | Activity [19]: 94.8% | Activity [20]: 4.1% | Activity [21]: 6.2% | Activity [22]: 77.2% | Activity [23]: 0% | Activity [24]: 44.1% | Activity [25]: 38.3% | Activity [26]: 15.8% | Activity [27]: 78.3% | Activity [28]: 0% | Activity [29]: 0% | Activity [30]: 2.3% | Activity [31]: 78.6% | Activity [32]: 1.9% | Activity [33]: 1.4% | Activity [34]: 0%
